Laboratory results as given in patent US20250241892A1, “5-METHOXY-N,N-[…][…] THE TREATMENT OF PSYCHOMOTOR RETARDATION” (GH RESEARCH IRELAND LIMITED, priority 2022, published 2025).

Test system: patients with postpartum depression (PPD)
Assay: Clinical trial of inhaled 5-MeO-DMT in postpartum depression
Conditions: 1 patient
Procedure: The single-arm, open-label clinical trial will involve 15 adult female patients with clinically diagnosed postpartum depression (PPD).
The second dose (12 mg) will only be administered if: • a. A peak experience (total score of ⋅75) has not been achieved following the 6 mg dose, and • b. The 6 mg dose was safe and well-tolerated according to the investigator, • c. Any psychoactive effects (PsE) of the prior dose have subsided, and • d. Pre-dose vital parameters and forced expiratory volume in one second (FEV1) are in normal range, or if outside of the normal range, are not clinically significant according to the investigator. • 3. Similarly, a third dose (18 mg) will only be administered if: • a. A peak experience (total score of ⋅75) has not been achieved following the 12 mg dose, and • b. The 12 mg dose was safe and well-tolerated according to the investigator, and • c. Any PsE of the prior dose have subsided, and • d. Pre-dose vital parameters and forced expiratory volume in one second (FEV1) are in normal range, or if outside of the normal range, are not clinically significant according to the investigator.
The patients will be assessed for a peak psychedelic experience (based on a patient-scored visual analogue scale, the PE scale), sedation, and other endpoints after dosing. Follow-up visits are planned for Day 1, and Day 7 after the dosing day.
The following criteria must be met by all patients considered for clinical trial participation: • 1. Is female and in the age range between 18 and 45 years (inclusive) at screening. • 2. Has a body mass index (BMI) in the range of 18.5 and 35 kg/m^2 (inclusive) at screening. • 3. Meets the trial criteria for PPD as assessed by a trial psychiatrist or registered psychologist: • a. Diagnosis of Major Depressive Disorder without psychotic features, confirmed by the Mini-International Neuropsychiatric Interview (MINI), with peri-partum onset that began no earlier than gestation and no later than the first 4 weeks postpartum. • b. Has a Montgomery-Åsberg Depression Rating Scale (MADRS) total score of equal to or greater than 28 at screening and pre-dose on Day 0. • 6. […] Patients must have a negative pregnancy test at screening and on the pre-test day (Day −1). • 5. Is willing to delay start of other antidepressant or anxiety medication until after the end of the trial at Day 7 and agrees to keep any psychotherapy unchanged during the trial.
A potential patient who meets any of the following key exclusion criteria will be excluded from participation in this trial: • 1. Has, based on history, psychiatric assessment, and evaluation of the MINI, a current or prior diagnosis of bipolar disorder, a manic or hypomanic episode, a psychotic disorder, Major Depressive Disorder (MDD) or other mood disorder with psychotic features, obsessive compulsive disorder, post-traumatic stress disorder (PTSD), autism spectrum disorder, borderline personality disorder, schizophrenia, delusional disorder, paranoid personality disorder, schizoaffective disorder, clinically significant intellectual disability, or any other psychiatric comorbidity that renders the patient unsuitable for the trial according to the investigator's judgment. • 2. Has one or more first or second degree relatives with a current or previously diagnosed bipolar disorder, psychotic disorder or other mood disorder (including MDD) with psychotic features. • 3. Is in the judgement of a trial psychiatrist or registered psychologist, at significant risk for suicide based on history, psychiatric assessment, and evaluation of suicidal ideation and suicidal behaviour based on the Columbia-Suicide Severity Rating Scale (C-SSRS). • 4. Has taken anti-depressive medication within 14 days or 5 half-lives (whichever is longer) prior to dosing (exception: within the last 5 weeks in the case of fluoxetine). • 5.

In the case of `COc1ccc2[nH]cc(CCN(C)C)c2c1` [5-MeO-DMT], the “BPRS Mannerisms and Posturing score” value (Day 7, baseline 1) is reported as 1, the “BPRS Motor retardation score” value (Day 7, baseline 1) is reported as 1 and the “BPRS Suspiciousness score” value (Day 7, baseline 1) is reported as 1. The “BPRS Uncooperativeness score” value (Day 7, baseline 1) was 1, the “BPRS Unusual Thought Content score” value (Day 7, baseline 1) was 1 and the “BPRS Excitement score” value (Day 7, baseline 2) was 1. For the same molecule, the “MADRS Inability to Feel score” value (Day 7, baseline 3) was 0, the “MADRS Lassitude score” value (Day 7, baseline 3) was 0 and the “MADRS Pessimistic Thoughts score” value (Day 7, baseline 4) was 0. The “MADRS Reported sadness score” value (Day 7, baseline 4) was 0, the “BPRS Emotional withdrawal score” value (Day 7, baseline 5) was 1 and the “MADRS Apparent sadness score” value (Day 7, baseline 5) was 0. For the same molecule, the “MADRS Inner Tension score” value (Day 7, baseline 5) was 1, the “MADRS Reduced Sleep score” value (Day 7, baseline 5) was 0 and the “BPRS Depressive Mood score” value (Day 7, baseline 6) was 1. For the same molecule, the “BPRS Guilt feelings score” value (Day 7, baseline 6) was 1, the “BPRS Somatic Concern score” value (Day 7, baseline 6) was 1 and the “BPRS Tension score” value (Day 7, baseline 6) was 1. For the same molecule, the “BPRS Anxiety score” value (Day 7, baseline 7) was 1, the “BIMF functional domain Adjustment Δ (Day 7)” value (Day 7 vs Day 0) was 1 and the “BIMF functional domain Infant Care Δ (Day 7)” value (Day 7 vs Day 0) was 0. The “BIMF functional domain Management Δ (Day 7)” value (Day 7 vs Day 0) was 5, the “BIMF functional domain Mother-Child Interaction Δ (Day 7)” value (Day 7 vs Day 0) was 2 and the “BIMF functional domain Psychological Well-being Δ (Day 7)” value (Day 7 vs Day 0) was 9. The “BIMF functional domain Self Care Δ (Day 7)” value (Day 7 vs Day 0) was 4, the “BIMF functional domain Social Support Δ (Day 7)” value (Day 7 vs Day 0) was 1 and the “BIMF item 1 (I am a good mother) Δ (Day 7)” value (Day 7 vs Day 0) was 0. For the same molecule, the “BIMF item 2 (I feel rested) Δ (Day 7)” value (Day 7 vs Day 0) was 2, the “BIMF item 3 (comfortable with the way I've chosen to feed my baby) Δ (Day 7)” value (Day 7 vs Day 0) was 0 and the “BIMF item 4 (My baby and I understand each other) Δ (Day 7)” value (Day 7 vs Day 0) was 0. For the same molecule, the “BIMF item 5 (able to relax and enjoy time with my baby) Δ (Day 7)” value (Day 7 vs Day 0) was 1, the “BIMF item 6 (people in my life that I can trust to care for my baby) Δ (Day 7)” value (Day 7 vs Day 0) was 0 and the “BIMF item 8 (getting enough adult interaction) Δ (Day 7)” value (Day 7 vs Day 0) was 0. For the same molecule, the “BIMF item 9 (getting enough encouragement from other people) Δ (Day 7)” value (Day 7 vs Day 0) was 1, the “BIMF item 10 (I trust my own feelings (instincts)) Δ (Day 7)” value (Day 7 vs Day 0) was 1 and the “BIMF item 11 (a little time each week to do something for myself) Δ (Day 7)” value (Day 7 vs Day 0) was 1. The “BIMF item 12 (taking good care of my baby's physical needs) Δ (Day 7)” value (Day 7 vs Day 0) was 0, the “BIMF item 13 (taking good care of my physical needs) Δ (Day 7)” value (Day 7 vs Day 0) was 1 and the “BIMF item 14 (good decisions about my baby's health and well being) Δ (Day 7)” value (Day 7 vs Day 0) was 0. The “BIMF item 15 (My baby and I are getting into a routine) Δ (Day 7)” value (Day 7 vs Day 0) was 1, the “BIMF item 16 (I worry about how other people judge me) Δ (Day 7)” value (Day 7 vs Day 0) was 2 and the “BIMF item 17 (able to take care of my baby and my other responsibilities) Δ (Day 7)” value (Day 7 vs Day 0) was 0. The “BIMF item 18 (Anxiety or worry often interferes with my mothering ability) Δ (Day 7)” value (Day 7 vs Day 0) was 3, the “BIMF item 19 (getting better at taking care of my baby) Δ (Day 7)” value (Day 7 vs Day 0) was 1 and the “BIMF item 20 (satisfied with the job I am doing as a new mother) Δ (Day 7)” value (Day 7 vs Day 0) was −1. For the same molecule, the “BPRS Anxiety improvement” value (Day 7 vs baseline) was 6, the “BPRS Blunted affect improvement” value (Day 7 vs baseline) was 0 and the “BPRS Conceptual disorganization improvement” value (Day 7 vs baseline) was 0. For the same molecule, the “BPRS Depressive Mood improvement” value (Day 7 vs baseline) was 5, the “BPRS Disorientation improvement” value (Day 7 vs baseline) was 0 and the “BPRS Emotional withdrawal improvement” value (Day 7 vs baseline) was 4. The “BPRS Excitement improvement” value (Day 7 vs baseline) was 1, the “BPRS Grandiosity improvement” value (Day 7 vs baseline) was 0 and the “BPRS Guilt feelings improvement” value (Day 7 vs baseline) was 5. The “BPRS Hallucinatory behaviour improvement” value (Day 7 vs baseline) was 0, the “BPRS Hostility improvement” value (Day 7 vs baseline) was 0 and the “BPRS Mannerisms and Posturing improvement” value (Day 7 vs baseline) was 0. The “BPRS Motor retardation improvement” value (Day 7 vs baseline) was 0, the “BPRS Somatic Concern improvement” value (Day 7 vs baseline) was 5 and the “BPRS Suspiciousness improvement” value (Day 7 vs baseline) was 0. The “BPRS Tension improvement” value (Day 7 vs baseline) was 5, the “BPRS Uncooperativeness improvement” value (Day 7 vs baseline) was 0 and the “BPRS Unusual Thought Content improvement” value (Day 7 vs baseline) was 0. For the same molecule, the “MADRS Apparent sadness improvement” value (Day 7 vs baseline) was 5, the “MADRS Concentration Difficulties improvement” value (Day 7 vs baseline) was 0 and the “MADRS Inability to Feel improvement” value (Day 7 vs baseline) was 3. The “MADRS Inner Tension improvement” value (Day 7 vs baseline) was 4, the “MADRS Lassitude improvement” value (Day 7 vs baseline) was 3 and the “MADRS Pessimistic Thoughts improvement” value (Day 7 vs baseline) was 4. For the same molecule, the “MADRS Reduced Sleep improvement” value (Day 7 vs baseline) was 5, the “MADRS Reduced appetite improvement” value (Day 7 vs baseline) was 0 and the “MADRS Reported sadness improvement” value (Day 7 vs baseline) was 4. For the same molecule, the “MADRS Suicidal Thoughts improvement” value (Day 7 vs baseline) was 0, the “BPRS Anxiety improvement” value (Discharge vs baseline) was 6 and the “BPRS Blunted affect improvement” value (Discharge vs baseline) was 0. The “BPRS Conceptual disorganization improvement” value (Discharge vs baseline) was 0, the “BPRS Depressive Mood improvement” value (Discharge vs baseline) was 5 and the “BPRS Disorientation improvement” value (Discharge vs baseline) was 0. The “BPRS Emotional withdrawal improvement” value (Discharge vs baseline) was 4, the “BPRS Excitement improvement” value (Discharge vs baseline) was 1 and the “BPRS Grandiosity improvement” value (Discharge vs baseline) was 0. The “BPRS Guilt feelings improvement” value (Discharge vs baseline) was 5, the “BPRS Hallucinatory behaviour improvement” value (Discharge vs baseline) was 0 and the “BPRS Hostility improvement” value (Discharge vs baseline) was 0. The “BPRS Mannerisms and Posturing improvement” value (Discharge vs baseline) was 0, the “BPRS Motor retardation improvement” value (Discharge vs baseline) was 0 and the “BPRS Somatic Concern improvement” value (Discharge vs baseline) was 5. The “BPRS Suspiciousness improvement” value (Discharge vs baseline) was 0, the “BPRS Uncooperativeness improvement” value (Discharge vs baseline) was 0 and the “BPRS Unusual Thought Content improvement” value (Discharge vs baseline) was 0. The “BPRS Blunted affect score” value (Discharge, baseline 1) was 1, the “BPRS Conceptual disorganization score” value (Discharge, baseline 1) was 1 and the “BPRS Disorientation score” value (Discharge, baseline 1) was 1. For the same molecule, the “BPRS Grandiosity score” value (Discharge, baseline 1) was 1, the “BPRS Hallucinatory behaviour score” value (Discharge, baseline 1) was 1 and the “BPRS Hostility score” value (Discharge, baseline 1) was 1. The “BPRS Mannerisms and Posturing score” value (Discharge, baseline 1) was 1, the “BPRS Motor retardation score” value (Discharge, baseline 1) was 1 and the “BPRS Suspiciousness score” value (Discharge, baseline 1) was 1. The “BPRS Uncooperativeness score” value (Discharge, baseline 1) was 1, the “BPRS Unusual Thought Content score” value (Discharge, baseline 1) was 1 and the “BPRS Excitement score” value (Discharge, baseline 2) was 1. For the same molecule, the “BPRS Emotional withdrawal score” value (Discharge, baseline 5) was 1, the “BPRS Depressive Mood score” value (Discharge, baseline 6) was 1 and the “BPRS Guilt feelings score” value (Discharge, baseline 6) was 1. The “BPRS Somatic Concern score” value (Discharge, baseline 6) was 1, the “BPRS Tension score” value (Discharge, baseline 6) was 1 and the “BPRS Anxiety score” value (Discharge, baseline 7) was 1. The “Changes in vital parameters” value (shortly after administration) was “temporary, clinically non-relevant increase in heart rate and blood pressure”.
